Consider one molecule from ChEMBL document CHEMBL1158843, “Development of a radiochemical cyclooxygenase-1 and -2 in vitro assay for identification of natural products as inhibitors of prostaglandin biosynthesis” (J Nat Prod, 1998).

Structures are written as SMILES.

The target of this test is T1, Prostaglandin G/H synthase 1 (Bos taurus) (UniProt O62664).
T1 sequence (whole entry): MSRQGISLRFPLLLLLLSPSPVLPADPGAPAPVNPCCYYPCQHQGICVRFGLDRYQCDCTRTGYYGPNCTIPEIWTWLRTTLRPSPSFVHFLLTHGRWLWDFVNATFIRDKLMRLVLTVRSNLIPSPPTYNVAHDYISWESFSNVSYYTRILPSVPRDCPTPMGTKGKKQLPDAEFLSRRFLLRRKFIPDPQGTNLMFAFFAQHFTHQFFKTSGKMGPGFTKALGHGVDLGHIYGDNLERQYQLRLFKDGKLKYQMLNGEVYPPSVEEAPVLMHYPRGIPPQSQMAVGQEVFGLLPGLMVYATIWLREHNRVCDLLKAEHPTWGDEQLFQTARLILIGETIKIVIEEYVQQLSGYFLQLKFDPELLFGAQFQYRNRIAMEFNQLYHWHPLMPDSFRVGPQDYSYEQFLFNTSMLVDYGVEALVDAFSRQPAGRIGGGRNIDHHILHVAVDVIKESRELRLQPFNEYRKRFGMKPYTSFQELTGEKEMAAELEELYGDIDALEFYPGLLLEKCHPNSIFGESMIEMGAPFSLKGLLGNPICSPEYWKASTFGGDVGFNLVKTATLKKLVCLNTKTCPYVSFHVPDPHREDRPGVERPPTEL
Kind of test: Inhibition of bovine seminal microsomal COX1 assessed as PGE2 production at 100 uM preincubated for 10 mins.

One may read the inhibition as the change of the read-out against control, counted positive when it falls.

As to `CS(=O)(=O)Nc1ccc([N+](=O)[O-])cc1OC1CCCCC1`, the inhibition came out at 9%.
